Measurements from paper PMC12363518, “Azobenzene-Modified Temperature-Responsive Short Elastin-like Peptides for Photo-Controlled Phase Transition” (ACS Synthetic Biology, 2025).
Numbered stars: 1 amine (or outer) side, 2 acyl side, 3 side chain; on linkers, the order of the positions; unused ones are H or OH. Bridge positions count the residues as written; N and C are the ends. Square brackets hold non-standard residues; d marks the D form. Peptide text beside a SMILES is read from it. I, II: the chains in the order shown. X1 = O=C(c1ccc(N=Nc2ccc(C(=O)[*:2])cc2)cc1)[*:1]; X2 = O=C(c1ccc(N=Nc2ccc(N[*:1])cc2)cc1)[*:2]; X3 = c1cc(N[*:1])ccc1N=Nc1ccc(N[*:2])cc1

Tests used:
[1] = not given; remark: listed apart in the source
[2] = Turbidity measurement (OD600) of temperature-dependent phase separation, Tt; assay type: physicochemical; settings: even at 2.38 mM (5.00 mg/mL) in PBS; turbidity OD600
Description: The ability of the ELP–azobenzene conjugates to self-assemble was investigated by using turbidity measurements. In addition, we evaluated whether the photoisomerization of the azobenzene moieties induced differences in the aggregation ability of these analogues. Each peptide analogue was dissolved in PBS at different concentrations according to its water solubility. To quantitatively evaluate the aggregation ability, the transition temperature (T t) of the peptides was calculated from the change in optical density at a wavelength of 600 nm (OD600) associated with the increasing temperature (Table and Figure ).
The temperature-dependent self-assembly property of synthesized peptides was evaluated by using a JASCO V-660 spectral photometer (JASCO Co.). Each peptide was dissolved in PBS buffer or phosphate buffer solutions at various concentrations. Three types of phosphate buffers with the same ionic strength (μ = 0.100) but different pH (pH 7.4, 2.1, and 11.5) were prepared: phosphate buffer (pH 7.4, 29.4 mM Na2HPO4, 11.7 mM NaH2PO4), phosphate buffer (pH 2.1, 10.0 mM NaH2PO4, 10.5 mM phosphoric acid), and phosphate buffer (pH 11.5, 9.58 mM Na3PO4, 14.2 mM Na2HPO4). Turbidity was measured at 600 nm with increasing or decreasing temperature at a rate of 0.5 °C/min from 5 °C. The measurements were performed for the dark-adapted solution and after successive irradiation with UV light, visible light, and UV light. Each assay was repeated three times with different peptide solutions that were prepared separately. The phase separation property was described by the phase transition temperature (T t), which is the temperature at which the turbidity of the solution reaches half its maximum value.

[3] = Particle size distribution by dynamic light scattering (DLS); assay type: physicochemical; settings: PBS
[4] = Water solubility (observation); assay type: physicochemical; settings: qualitative observation

Structure (SMILES) | peak wavelength n–π* [nm] | peak wavelength π–π* [1] [nm] | phase separation in PBS [2] | self-assembly in dark-adapted solution (DLS) [3] | water solubility [4]
CC(C)[C@H](NC(=O)CNC(=O)[C@@H]1CCCN1C(=O)[C@H](Cc1ccccc1)NC(=O)CNC(=O)[C@@H](NC(=O)CNC(=O)[C@@H]1CCCN1C(=O)[C@@H](N)Cc1ccccc1)C(C)C)C(=O)NCC(=O)N[C@@H](CC(=O)O)C(=O)Nc1ccc(N=Nc2ccc(NC(=O)[C@H](CC(=O)O)NC(=O)CNC(=O)[C@@H](NC(=O)CNC(=O)[C@@H]3CCCN3C(=O)[C@H](Cc3ccccc3)NC(=O)CNC(=O)[C@@H](NC(=O)CNC(=O)[C@@H]3CCCN3C(=O)[C@@H](N)Cc3ccccc3)C(C)C)C(C)C)cc2)cc1 (I: H-FPGVGFPGVGD / II: H-FPGVGFPGVGD; linker I:C-II:C via X3) | 450 | 364 |  |  | 
CC(C)[C@H](NC(=O)CNC(=O)[C@@H]1CCCN1C(=O)[C@H](Cc1ccccc1)NC(=O)CNC(=O)[C@@H](NC(=O)CNC(=O)[C@@H]1CCCN1C(=O)[C@H](Cc1ccccc1)NC(=O)c1ccc(N=Nc2ccc(C(=O)N[C@@H](Cc3ccccc3)C(=O)N3CCC[C@H]3C(=O)NCC(=O)N[C@H](C(=O)NCC(=O)N[C@@H](Cc3ccccc3)C(=O)N3CCC[C@H]3C(=O)NCC(=O)N[C@H](C(=O)NCC(=O)O)C(C)C)C(C)C)cc2)cc1)C(C)C)C(=O)NCC(=O)O [Azb-2(F2)] (I: FPGVGFPGVG-OH / II: FPGVGFPGVG-OH; linker I:N-II:N via X1) |  |  | did not exhibit phase separation | did not exhibit self-assembly | 
CC(C)[C@H](NC(=O)CNC(=O)[C@@H]1CCCN1C(=O)[C@H](Cc1ccccc1)NC(=O)CNC(=O)[C@@H](NC(=O)CNC(=O)[C@@H]1CCCN1C(=O)[C@H](Cc1ccccc1)NC(=O)c1ccc(N=Nc2ccc(NC(=O)CNC(=O)[C@@H](NC(=O)CNC(=O)[C@@H]3CCCN3C(=O)[C@H](Cc3ccccc3)NC(=O)CNC(=O)[C@@H](NC(=O)CNC(=O)[C@@H]3CCCN3C(=O)[C@@H](N)Cc3ccccc3)C(C)C)C(C)C)cc2)cc1)C(C)C)C(=O)NCC(N)=O [F2-Azb-F2-NH2] (H-FPGVGFPGVG[X2]FPGVGFPGVG-NH2) | 450 | 356 |  |  | low water solubility
CC(C)[C@H](NC(=O)CNC(=O)[C@@H]1CCCN1C(=O)[C@H](Cc1ccccc1)NC(=O)CNC(=O)[C@@H](NC(=O)CNC(=O)[C@@H]1CCCN1C(=O)[C@H](Cc1ccccc1)NC(=O)c1ccc(N=Nc2ccc(NC(=O)CNC(=O)[C@@H](NC(=O)CNC(=O)[C@@H]3CCCN3C(=O)[C@H](Cc3ccccc3)NC(=O)CNC(=O)[C@@H](NC(=O)CNC(=O)[C@@H]3CCCN3C(=O)[C@@H](N)Cc3ccccc3)C(C)C)C(C)C)cc2)cc1)C(C)C)C(=O)NCC(=O)O [F2-Azb-F2] (H-FPGVGFPGVG[X2]FPGVGFPGVG-OH) | 444 | 354 |  |  | low water solubility
